Assay results published in patent US20200255478A1, “NOVEL COMPOUNDS ACTIVATING THE NRF2 PATHWAY” (Almirall, S.A., priority 2017, published 2020).
pIC50: −log10 of the molar value. Where two headings read alike, the source gives them in different places. Starred links: 1 amine or outer side, 2 acyl side, 3 side chain; linkers in the order of their positions; H or OH if unused. Positions of bridges follow the written chain, without caps; N, C: chain ends. Non-standard residues stand in square brackets, D forms with d. Residues, ends and D or L forms follow the SMILES beside them. *: point of attachment. Phe(4-yl) = O=C([C@H](Cc1ccc([*:3])cc1)N[*:1])[*:2]; Pyridine(2,6-diCH2) = c1cc(C[*:1])nc(C[*:2])c1; Pyridine(3,5-bisCH2) = c1ncc(C[*:2])cc1C[*:1]; oXylylene = c1ccc(C[*:2])c(C[*:1])c1; X2 = c1ccc2cc(C[*:2])c(C[*:1])cc2c1; X6 = c1ccc2nc(C[*:2])c(C[*:1])nc2c1; Stearoyl = CCCCCCCCCCCCCCCCCC(=O)*; βAla = NCCC(=O)O

Molecular target: Keap1-Maltose Binding Protein (MBP tag) (Homo sapiens, UniProt Q14145)
Sequence (Q14145 whole entry): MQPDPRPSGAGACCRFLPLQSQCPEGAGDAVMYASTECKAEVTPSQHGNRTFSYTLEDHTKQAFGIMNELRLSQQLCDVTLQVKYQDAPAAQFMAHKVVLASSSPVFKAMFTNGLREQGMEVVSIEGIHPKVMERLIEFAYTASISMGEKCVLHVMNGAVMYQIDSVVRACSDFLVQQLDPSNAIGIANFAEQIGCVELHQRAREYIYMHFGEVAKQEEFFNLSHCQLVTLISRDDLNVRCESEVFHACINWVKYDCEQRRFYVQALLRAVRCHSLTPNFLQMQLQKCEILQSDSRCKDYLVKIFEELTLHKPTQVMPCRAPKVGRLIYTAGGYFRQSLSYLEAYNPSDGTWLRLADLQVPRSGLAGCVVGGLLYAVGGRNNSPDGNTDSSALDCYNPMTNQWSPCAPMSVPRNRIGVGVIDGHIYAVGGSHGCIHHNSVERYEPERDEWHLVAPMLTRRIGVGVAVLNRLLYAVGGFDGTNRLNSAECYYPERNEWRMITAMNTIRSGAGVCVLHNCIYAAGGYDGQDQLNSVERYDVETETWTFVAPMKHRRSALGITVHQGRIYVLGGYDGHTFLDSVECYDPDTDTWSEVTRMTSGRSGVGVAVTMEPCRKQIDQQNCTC
Assay: Nrf2-Keap1 HTRF (TR-FRET) binding assay: displacement of biotinylated ETGE peptide from Keap1-MBP
[1] = HTRF (TR-FRET), displacement of ETGE-biotin from Keap1-MBP, values banded into grades, read-out: Binding (IC50) ETGE-Keap1

| Compound | pIC50 [1] | pIC50 |
| --- | --- | --- |
| CCCCCCCCCCCCCCCCCC(=O)N[C@H]1C[C@H]2C(=O)N[C@@H](CCC(N)=O)C(=O)N[C@H]3CSCC4(COC4)CSC[C@H](NC(=O)[C@H](CCC(=O)O)NC(=O)CNC(=O)[C@H]([C@@H](C)O)NC(=O)[C@H](CCC(=O)O)NC(=O)[C@@H]4CSCN4C(=O)[C@H](CC(=O)O)NC3=O)C(=O)N[C@@H](CC(C)C)C(=O)N3CCC[C@@H]3C(=O)N2C1 [Example 97, {[&^1Pro((4S)-NH-Stearyl)-Gln-Cys(&^2)-Asp-Thz-Glu-Thr-Gly-Glu-Cys(&^3)-Leu-D-Pro&^1][&^2(3,3-oxetanediyl)dimethylene&^3]}] | > 9.00 | – |
| CCCCCCCCCCCCCCCCCC(=O)NCCC(=O)N[C@@H](CC(C)C)C(=O)N[C@@H](CCC(N)=O)C(=O)N[C@H]1CSCc2ccccc2CSC[C@@H](C(=O)N[C@@H](CC(C)C)C(=O)N2CCC[C@H]2C(=O)O)NC(=O)[C@H](CCC(=O)O)NC(=O)CNC(=O)[C@H]([C@@H](C)O)NC(=O)[C@H](CCC(=O)O)NC(=O)[C@@H]2CCCN2C(=O)[C@H](CC(=O)O)NC1=O [Example 35, {[Stearyl-βAla-Leu-Gln-Cys(&^1)-Asp-Pro-Glu-Thr-Gly-G1u-Cys(&^2)-Leu-Pro-OH][&^1(1,2-phenylenediyl)dimethylene&^2]}] ({Stearoyl-βAla}-LQCDPETGECLP-OH; linker 3-10 via oXylylene) | 7.00 to 9.00 | – |
| CC(C)C[C@H](NC(=O)[C@@H]1CSCc2c(F)c(F)c(F)c(F)c2CSC[C@H](NC(=O)[C@H](CCC(N)=O)NC(=O)[C@@H](N)CC(C)C)C(=O)N[C@@H](CC(=O)O)C(=O)N2CCC[C@H]2C(=O)N[C@@H](CCC(=O)O)C(=O)N[C@@H]([C@@H](C)O)C(=O)NCC(=O)N[C@@H](CCC(=O)O)C(=O)N1)C(=O)N1CCC[C@H]1C(=O)NCCC(=O)N[C@@H](CCCNC(=N)N)C(=O)N[C@@H](CCCCN)C(=O)N[C@@H](CCCCN)C(=O)N[C@@H](CCCNC(=N)N)C(=O)N[C@@H](CCCNC(=N)N)C(=O)N[C@@H](CCC(N)=O)C(=O)N[C@@H](CCCNC(=N)N)C(=O)N[C@@H](CCCNC(=N)N)C(=O)N[C@@H](CCCNC(=N)N)C(N)=O [Example 56] | – | > 9.00 |
| CC(=O)N[C@H]1CSCc2cc3ccccc3cc2CSC[C@@H](C(N)=O)NC(=O)[C@H](CCC(=O)O)NC(=O)CNC(=O)[C@H]([C@@H](C)O)NC(=O)[C@H](CCC(=O)O)NC(=O)[C@H](CCC(=O)O)NC(=O)[C@H](CC(=O)O)NC1=O [Example 27, {[Acetyl-Cys(&^1)-Asp-Glu-Glu-Thr-Gly-Glu-Cys(&^2)-NH2][&^1(naphthalene)2,3-diyldimethylene&^2]}] (Ac-CDEETGEC-NH2; linker 1-8 via X2) | 7.00 to 9.00 | – |
| CCCCCCCC/C=C/CCCCCCCC(=O)N[C@H]1C[C@H]2C(=O)N[C@@H](CCC(N)=O)C(=O)N[C@H]3CSCc4ccccc4CSC[C@H](NC(=O)[C@H](CCC(=O)O)NC(=O)CNC(=O)[C@H]([C@@H](C)O)NC(=O)[C@H](CCC(=O)O)NC(=O)[C@@H]4CCCN4C(=O)[C@H](CC(=O)O)NC3=O)C(=O)N[C@@H](CC(C)C)C(=O)N3CCC[C@@H]3C(=O)N2C1 [Example 87, {[&^1Pro((4S)-NH-elaidyl)-Gln-Cys(&^2)-Asp-Pro-Glu-Thr-Gly-Glu-Cys(&^3)-Leu-D-Pro&^1][&^2(1,2-phenylenediyl)dimethylene&^3]}] | – | 7.00 to 9.00 |
| CC(=O)N[C@H]1CSCc2nc3ccccc3nc2CSC[C@@H](C(N)=O)NC(=O)[C@H](CCC(=O)O)NC(=O)CNC(=O)[C@H]([C@@H](C)O)NC(=O)[C@H](CCC(=O)O)NC(=O)[C@H](CCC(=O)O)NC(=O)[C@H](CC(=O)O)NC1=O [Example 26, {[Acetyl-Cys(&^1)-Asp-Glu-Glu-Thr-Gly-Glu-Cys(&^2)-NH2][&^1(quinoxaline)2,3-diyldimethylene&^2]}] (Ac-CDEETGEC-NH2; linker 1-8 via X6) | 7.00 to 9.00 | – |
| CC(C)C[C@H](NC(=O)[C@H](CC(C)C)NC(=O)[C@@H]1CSCc2cc3ccccc3cc2CSC[C@H](NC(=O)[C@H](CC(C)C)NC(=O)[C@@H](N)CC(C)C)C(=O)N[C@@H](CC(=O)O)C(=O)N2CCC[C@H]2C(=O)N[C@@H](CCC(=O)O)C(=O)N[C@@H]([C@@H](C)O)C(=O)NCC(=O)N[C@@H](CCC(=O)O)C(=O)N1)C(=O)NCCC(=O)N[C@@H](CCCNC(=N)N)C(=O)N[C@@H](CCCCN)C(=O)N[C@@H](CCCCN)C(=O)N[C@@H](CCCNC(=N)N)C(=O)N[C@@H](CCCNC(=N)N)C(=O)N[C@@H](CCC(N)=O)C(=O)N[C@@H](CCCNC(=N)N)C(=O)N[C@@H](CCCNC(=N)N)C(=O)N[C@@H](CCCNC(=N)N)C(N)=O [Example 58] | > 9.00 | – |
| CCCCCCCCCCCCCCCCCC(=O)NCCC(=O)N[C@@H](CC(C)C)C(=O)N[C@@H](CCC(N)=O)C(=O)N[C@H]1CSCc2cccc(n2)CSC[C@@H](C(=O)N[C@@H](CC(C)C)C(=O)N2CCC[C@H]2C(N)=O)NC(=O)[C@H](CCC(=O)O)NC(=O)CNC(=O)[C@H]([C@@H](C)O)NC(=O)[C@H](CCC(=O)O)NC(=O)[C@@H]2CCCN2C(=O)[C@H](CC(=O)O)NC1=O [Example 62, {[Stearyl-βAla-Leu-Gln-Cys(&^1)-Asp-Pro-Glu-Thr-Gly-Glu-Cys(&^2)-Leu-Pro-NH2][&^1(pyridine)2,6-diyldimethylene&^2]}] ({Stearoyl-βAla}-LQCDPETGECLP-NH2; linker 3-10 via Pyridine(2,6-diCH2)) | 7.00 to 9.00 | – |
| CCCCCCCCCCCCCCCCCC(=O)NCCC(=O)N[C@@H](CC(C)C)C(=O)N[C@@H](CCC(N)=O)C(=O)N[C@H]1CSCc2cncc(c2)CSC[C@@H](C(=O)N[C@@H](CC(C)C)C(=O)N2CCC[C@H]2C(N)=O)NC(=O)[C@H](CCC(=O)O)NC(=O)CNC(=O)[C@H]([C@@H](C)O)NC(=O)[C@H](CCC(=O)O)NC(=O)[C@@H]2CCCN2C(=O)[C@H](CC(=O)O)NC1=O [Example 65, {[Stearyl-βAla-Leu-Gln-Cys(&^1)-Asp-Pro-Glu-Thr-Gly-Glu-Cys(&^2)-Leu-Pro-NH2][&^1(pyridine)3,5-diyldimethylene&^2]}] ({Stearoyl-βAla}-LQCDPETGECLP-NH2; linker 3-10 via Pyridine(3,5-bisCH2)) | > 9.00 | – |
| CC(C)C[C@H](NC(=O)[C@H](CC(C)C)NC(=O)[C@@H]1CSCc2ccccc2CSC[C@H](NC(=O)[C@H](CC(C)C)NC(=O)[C@@H](N)CC(C)C)C(=O)N[C@@H](CC(=O)O)C(=O)N2CCC[C@H]2C(=O)N[C@@H](CCC(=O)O)C(=O)N[C@@H]([C@@H](C)O)C(=O)NCC(=O)N[C@@H](CCC(=O)O)C(=O)N1)C(=O)NCCC(=O)N[C@@H](CCCNC(=N)N)C(=O)N[C@@H](CCCCN)C(=O)N[C@@H](CCCCN)C(=O)N[C@@H](CCCNC(=N)N)C(=O)N[C@@H](CCCNC(=N)N)C(=O)N[C@@H](CCC(N)=O)C(=O)N[C@@H](CCCNC(=N)N)C(=O)N[C@@H](CCCNC(=N)N)C(=O)N[C@@H](CCCNC(=N)N)C(N)=O [Example 60] | > 9.00 | – |
| CC(=O)N[C@H]1Cc2ccc(cc2)SC[C@@H](C(N)=O)NC(=O)[C@H](CCC(=O)O)NC(=O)CNC(=O)[C@H]([C@@H](C)O)NC(=O)[C@H](CCC(=O)O)NC(=O)[C@H](CCC(=O)O)NC(=O)[C@H](CC(=O)O)NC1=O [Example 10, Acetyl-Phe(p-&^1)-Asp-Glu-Glu-Thr-Gly-Glu-Cys(&^1)-NH2] (Ac-[Phe(4-yl)]DEETGEC-NH2; thioether 1-8) | 5.30 to 7.00 | – |
| CCCCCCCCCCCCCCCCCC(=O)N[C@H]1C[C@H]2C(=O)N[C@@H](CCC(N)=O)C(=O)N[C@H]3CSCC4(CCOCC4)CSC[C@H](NC(=O)[C@H](CCC(=O)O)NC(=O)CNC(=O)[C@H]([C@@H](C)O)NC(=O)[C@H](CCC(=O)O)NC(=O)[C@@H]4CCCN4C(=O)[C@H](CC(=O)O)NC3=O)C(=O)N[C@@H](CC(C)C)C(=O)N3CCC[C@@H]3C(=O)N2C1 [Example 100, {[&^1Pro((4S)-NH-Stearyl)-Gln-Cys(&^2)-Asp-Pro-Glu-Thr-Gly-Glu-Cys(&^3)-Leu-D-Pro&^1][&^2(tetrahydro-2H-pyran-4,4-diyl)dimethylene&^3]}] | – | 7.00 to 9.00 |
| CC(=O)N[C@H]1CSCc2ccccc2CSC[C@@H](C(N)=O)NC(=O)[C@H](CCC(=O)O)NC(=O)CNC(=O)[C@H]([C@@H](C)O)NC(=O)[C@H](CCC(=O)O)NC(=O)[C@H](C)NC(=O)[C@H](CC(=O)O)NC1=O [Example 20, {[Acetyl-Cys(&^1)-Asp-Ala-Glu-Thr-Gly-Glu-Cys(&^2)-NH2][&^1(1,2-phenylenediyl)dimethylene&^2]}] | 7.00 to 9.00 | – |
| CCCCCCCCCCCCCCCCCC(=O)NCCC(=O)N(C)[C@@H](CC(C)C)C(=O)N[C@@H](CCC(N)=O)C(=O)N[C@H]1CSCc2ccccc2CSC[C@@H](C(=O)N[C@@H](CC(C)C)C(=O)N2CCC[C@H]2C(N)=O)NC(=O)[C@H](CCC(=O)O)NC(=O)CNC(=O)[C@H]([C@@H](C)O)NC(=O)[C@H](CCC(=O)O)NC(=O)[C@@H]2CCCN2C(=O)[C@H](CC(=O)O)NC1=O [Example 45, {[Stearyl-βAla-MeLeu-Gln-Cys(&^1)-Asp-Pro-Glu-Thr-Gly-Glu-Cys(&^2)-Leu-Pro-NH2][&^1(1,2-phenylenediyl)dimethylene&^2]}] | 7.00 to 9.00 | – |
| CC(C)C[C@H](NC(=O)[C@@H]1CSCc2cccc(c2)CSC[C@H](NC(=O)[C@H](CCC(N)=O)NC(=O)[C@@H](N)CC(C)C)C(=O)N[C@@H](CC(=O)O)C(=O)N[C@@H](CCC(=O)O)C(=O)N[C@@H](CCC(=O)O)C(=O)N[C@@H]([C@@H](C)O)C(=O)NCC(=O)N[C@@H](CCC(=O)O)C(=O)N1)C(=O)N1CCC[C@H]1C(=O)NCCC(=O)N[C@@H](CCCNC(=N)N)C(=O)N[C@@H](CCCCN)C(=O)N[C@@H](CCCCN)C(=O)N[C@@H](CCCNC(=N)N)C(=O)N[C@@H](CCCNC(=N)N)C(=O)N[C@@H](CCC(N)=O)C(=O)N[C@@H](CCCNC(=N)N)C(=O)N[C@@H](CCCNC(=N)N)C(=O)N[C@@H](CCCNC(=N)N)C(N)=O [Example 9] | 7.00 to 9.00 | – |
| CC(C)C[C@H](NC(=O)[C@@H]1CSCc2cc3ccccc3cc2CSC[C@H](NC(=O)[C@H](CCC(N)=O)NC(=O)[C@@H](N)CC(C)C)C(=O)N[C@@H](CC(=O)O)C(=O)N[C@@H](C)C(=O)N[C@@H](CCC(=O)O)C(=O)N[C@@H]([C@@H](C)O)C(=O)NCC(=O)N[C@@H](CCC(=O)O)C(=O)N1)C(=O)N1CCC[C@H]1C(=O)NCCC(=O)N[C@@H](CCCNC(=N)N)C(=O)N[C@@H](CCCCN)C(=O)N[C@@H](CCCCN)C(=O)N[C@@H](CCCNC(=N)N)C(=O)N[C@@H](CCCNC(=N)N)C(=O)N[C@@H](CCC(N)=O)C(=O)N[C@@H](CCCNC(=N)N)C(=O)N[C@@H](CCCNC(=N)N)C(=O)N[C@@H](CCCNC(=N)N)C(N)=O [Example 30] | 7.00 to 9.00 | – |
